Measurements reported in PMC11191877, “Discovery of new Schiff bases of the disalicylic acid scaffold as DNA gyrase and topoisomerase IV inhibitors endowed with antibacterial properties” (Frontiers in Chemistry, 2024).
In brackets after ≈: the same amount, converted by molar mass.

Tests used:
Staph. aureus = test: Modified Kirby-Bauer disc diffusion; assay type: cell-based, Staphylococcus aureus; conditions: for Inhibition zone diameter: Staph. aureus (G+)
Experimental: (§1) The antimicrobial activity of compounds 5a-k was assessed using a modified Kirby-Bauer disc diffusion method ([Alkhaldi et al., 2019]; [Al-Wahaibi et al., 2021b]; [Manso et al., 2021]; [Ecevit et al., 2022]). […] Ciprofloxacin was used as a reference medication. […] Compounds 5f-k had promising antibacterial action against Gram-positive and Gram-negative bacteria, ranging from 75% to 115% of typical ciprofloxacin levels. […]
(§2) incubated at 35-37 °C for 24-48 hours and yeast as Candida albicans (ATCC 7102) incubated at 30 °C for 24-48 hours and, then the diameters of the inhibition zones were measured in millimeters. Standard discs of ciprofloxacin (Antibacterial agent), Fluconazole (Antifungal agent) served as positive controls for antimicrobial activity but filter discs impregnated with 10 µl of solvent (distilled water, chloroform, DMSO) were used as a negative control. Blank paper disks (Schleicher & Schuell, Spain) with a diameter of 8.0 mm were impregnated 10µ of tested concentration of the stock solutions. When a filter paper disc impregnated with a tested chemical is placed on agar the chemical will diffuse from the disc into the agar. This diffusion will place the chemical in the agar only around the disc. The solubility of the chemical and its molecular size will determine the size of the area of chemical infiltration around the disc. If an organism is placed on the agar it will not grow in the area around the disc if it is susceptible to the chemical. This area of no growth around the disc is known as a “Zone of inhibition” or" Clear zone". For the disc diffusion, the zone diameters were measured with slipping calipers of the National Committee for Clinical Laboratory […]
(§3) Agar-based methods such as E-test and disk diffusion can be good alternatives because they are simpler and faster than broth-based methods. […]

Aspergillus flavus = test: Modified Kirby-Bauer disc diffusion (antifungal); assay type: cell-based; conditions: Aspergillus flavus (fungi)
Experimental: (§4) The antimicrobial activity of compounds 5a-k was assessed using a modified Kirby-Bauer disc diffusion method ([Alkhaldi et al., 2019]; [Al-Wahaibi et al., 2021b]; [Manso et al., 2021]; [Ecevit et al., 2022]). […] Ciprofloxacin was used as a reference medication. […] Compounds 5f-k had promising antibacterial action against Gram-positive and Gram-negative bacteria, ranging from 75% to 115% of typical ciprofloxacin levels.
(§5) In addition, the synthesized compounds 5a-k were evaluated for their antifungal activity against A. flavus and C. albicans, with Fluconazole as a reference medication (Table 1). […]
Standard discs of ciprofloxacin (Antibacterial agent), Fluconazole (Antifungal agent) served as positive controls for antimicrobial activity but filter discs impregnated with 10 µl of solvent (distilled water, chloroform, DMSO) were used as a negative control. Blank paper disks (Schleicher & Schuell, Spain) with a diameter of 8.0 mm were impregnated 10µ of tested concentration of the stock solutions. When a filter paper disc impregnated with a tested chemical is placed on agar the chemical will diffuse from the disc into the agar. This diffusion will place the chemical in the agar only around the disc. The solubility of the chemical and its molecular size will determine the size of the area of chemical infiltration around the disc. If an organism is placed on the agar it will not grow in the area around the disc if it is susceptible to the chemical. This area of no growth around the disc is known as a “Zone of inhibition” or" Clear zone". For the disc diffusion, the zone diameters were measured with slipping calipers of the National Committee for Clinical Laboratory […]
as §3

Candida albicans = test: Modified Kirby-Bauer disc diffusion (antifungal); assay type: cell-based; conditions: Candida albicans (fungi)
Experimental: as §4, §5, §2, §3

Bacillus subtilis [1] = test: Modified Kirby-Bauer disc diffusion; assay type: cell-based; conditions: Bacillus subtilis (G+)
Experimental: as §1, §2, §3

Pseudomonas aeruginosa [2] = test: Modified Kirby-Bauer disc diffusion; assay type: cell-based; conditions: Pseudomonas aeruginosa (G−)
Experimental: as §1, §2, §3

Escherichia Coli [3] = test: Modified Kirby-Bauer disc diffusion; assay type: cell-based; conditions: Escherichia Coli (G−)
Experimental: as §1, §2, §3

[4] = target: S. aureus topoisomerase IV; conditions: read-out: IC50 S. aureus topoisomerase IV; internal standard value stated in the supplementary method; cited from earlier work
mycobacterium = system: mycobacterium; design: method as in Abdu-Allah et al., 2017; conditions: nutrition starvation paradigm, 10 μg/mL; ref Abdu-Allah et al., 2017; cited from earlier work
M. tuberculosis H37Rv = system: M. tuberculosis H37Rv; design: method as in Abdu-Allah et al., 2017; conditions: ref Abdu-Allah et al., 2017; cited from earlier work
E. Coli = system: E. Coli; design: method as in Shi et al., 2007; conditions: ref Shi et al., 2007; cited from earlier work
P. fluorescence = system: P. fluorescence; design: method as in Shi et al., 2007; conditions: ref Shi et al., 2007; cited from earlier work
B. subtilis = system: B. subtilis; design: method as in Shi et al., 2007; conditions: ref Shi et al., 2007; cited from earlier work
[5] = system: Gram-positive and Gram-negative bacteria; test: Disc diffusion, activity relative to ciprofloxacin over the bacterial panel; assay type: cell-based; conditions: Gram-negative strains
Experimental: as §1
incubated at 35-37 °C for 24-48 hours and yeast as Candida albicans (ATCC 7102) incubated at 30 °C for 24-48 hours and, then the diameters of the inhibition zones were measured in millimeters. Standard discs of ciprofloxacin (Antibacterial agent), Fluconazole (Antifungal agent) served as positive controls for antimicrobial activity but filter discs impregnated with 10 µl of solvent (distilled water, chloroform, DMSO) were used as a negative control. Blank paper disks (Schleicher & Schuell, Spain) with a diameter of 8.0 mm were impregnated 10µ of tested concentration of the stock solutions. When a filter paper disc impregnated with a tested chemical is placed on agar the chemical will diffuse from the disc into the agar. This diffusion will place the chemical in the agar only around the disc. […] For the disc diffusion, the zone diameters were measured with slipping calipers of the National Committee for Clinical Laboratory […]

[6] = system: E. coli b-Ketoacyl-acyl carrier protein synthase III (ecKAS III); design: method as in Cheng et al., 2010; conditions: ref Cheng et al., 2010; cited from earlier work
Bacillus subtilis [7] = test: MIC, twofold serial dilution, 96-well microtiter plate; assay type: cell-based; conditions: Bacillus subtilis (G+); read-out: Minimum inhibitory concentration (MIC)
Experimental: (§6) The antibacterial activity of compounds 5f, 5h, 5i, and 5k were evaluated using a twofold serial dilution method ([Parasa et al., 2011]), with ciprofloxacin as the reference compound. The MIC values for certain compounds were obtained through dose-response experiments. The stated values are based on a minimum of two independent experiments, with three replicates per concentration in each experiment. The experimental details can be found in Appendix A (Supplementary Material). […]
(§7) 4.2.2. Minimum inhibitory concentration assay
(§8) In 96-well microtiter plates and […] of fresh bacterial culture of a single McFarland unit overnight, a double serial dilution of each compound […] in sterile standard saline were prepared to every single source well. Ciprofloxacin antibiotic (5 mg / mL - 1) and normal saline were included as standard reference in each assay. The plates were incubated at 37 0C overnight. As an indicator of bacterial growth, […] of p-iodonitrotetrazolium violet (INT) was added to each well and incubated at 37 0C for 30 […]
(§9) min. MIC values are recorded as the lowest concentration of the extract that completely inhibited bacterial growth that is clear well. The colorless tetrazolidium salt acts as an electron accepter and is reduced to a red colored formazan product by biological activity organisms. Where bacterial growth was inhibited, the solution in the well remained clear after incubation with INT. […]
(§10) SybrGOLD in T10 buffer (10 mM Tris HCl with pH 8.0 and 1 mM EDTA) was added. […]

Pseudomonas aeruginosa [8] = test: as above; assay type: cell-based; conditions: Pseudomonas aeruginosa (G−); read-out: Minimum inhibitory concentration (MIC)
Experimental: as §6, §7, §8, §9, §10

Staphylococcus aureus = test: as above; assay type: cell-based; conditions: Staphylococcus aureus (G+); read-out: Minimum inhibitory concentration (MIC)
Experimental: as §6, §7, §8, §9, §10

Escherichia Coli [9] = test: as above; assay type: cell-based; conditions: Escherichia coli (G−); read-out: Minimum inhibitory concentration (MIC)
Experimental: as §6, §7, §8, §9, §10

[10] = system: DNA methyltransferases (DNMTs); design: method as in Leroy et al., 2019; conditions: ref Leroy et al., 2019; cited from earlier work

Compound | Inhibition zone diameter (Staph. aureus) [mm/mg Sample] | Inhibition zone diameter (Aspergillus flavus) [mm/mg Sample] | Inhibition zone diameter (Candida albicans) [mm/mg Sample] | Inhibition zone diameter (Bacillus subtilis [1]) [mm/mg Sample] | Inhibition zone diameter (Pseudomonas aeruginosa [2]) [mm/mg Sample] | Inhibition zone diameter (Escherichia Coli [3]) [mm/mg Sample] | further results
N'-((E)-4-Methoxybenzylidene)-4-(4-(2-((Z)-4-methoxybenzylidene)hydrazine-1-carbonyl)-3-hydroxybenzyl)-2-hydroxybenzohydrazide [Compound 5j] | 33 | 0.0 | 0.0 | 31 | 30 | 30 | 
N'-((E)-Benzylidene)-4-(4-(2-((Z)-benzylidene)hydrazine-1-carbonyl)-3-hydroxy benzyl)-2-hydroxybenzohydrazide [Compound 5a] | 25 | 0.0 | 0.0 | 21 | 21 | 24 | 
CO[C@@H]1[C@@H](OC(N)=O)[C@@H](O)[C@H](Oc2ccc3c(O)c(NC(=O)c4ccc(O)c(CC=C(C)C)c4)c(=O)oc3c2C)OC1(C)C [Novobiocin] |  |  |  |  |  |  | IC50 [4]: 26.7 µM
O=C(N/N=C1\C(=O)N(Cc2ccc(Cl)cc2)c2ccccc21)c1cc(-n2cc(-c3ccccc3)nn2)ccc1O [III] |  |  |  |  |  |  | reduction of bacterial count (mycobacterium): 2.4 logs; MIC (M. tuberculosis H37Rv): 0.39 µg/mL (≈ 0.71 µM)
OC(Cn1cncn1)(Cn1cncn1)c1ccc(F)cc1F [Fluconazole, reference compound] |  | 40 | 40 |  |  |  | 
CC(C/N=C/c1cc(Cl)ccc1O)C/N=C/c1cc(Cl)ccc1O [II] |  |  |  |  |  |  | MIC (E. Coli): 4.9 µg/mL (≈ 13.4 µM); MIC (P. fluorescence): 3.6 µg/mL (≈ 9.86 µM); MIC (B. subtilis): 1.8 µg/mL (≈ 4.93 µM)
N'-((E)-4-Chlorobenzylidene)-4-(4-(2-((Z)-4-chlorobenzylidene)hydrazine-1-carbonyl)-3-hydroxybenzyl)-2-hydroxybenzohydrazide [Compound 5b] | 27 | 0.0 | 7 | 26 | 26 | 26 | 
N'-((E)-4-Nitrobenzylidene)-4-(4-(2-((Z)-4-nitrobenzylidene)hydrazine-1-carbonyl)-3-hydroxybenzyl)-2-hydroxybenzohydrazide [Compound 5c] | 27 | 0.0 | 11 | 26 | 25 | 27 | 
NC[C@H]1O[C@H](O[C@H]2[C@H](O)[C@@H](O[C@H]3O[C@H](CO)[C@@H](O)[C@H](N)[C@H]3O)[C@H](N)C[C@@H]2N)[C@H](O)[C@@H](O)[C@@H]1O [Kanamycin] |  |  |  |  |  |  | MIC (E. Coli): 3.9 µg/mL (≈ 8.05 µM); MIC (P. fluorescence): 3.9 µg/mL (≈ 8.05 µM); MIC (B. subtilis): 0.39 µg/mL (≈ 0.805 µM)
N'-((E)-2-Chlorobenzylidene)-4-(4-(2-((Z)-2-chlorobenzylidene)hydrazine-1-carbonyl)-3-hydroxybenzyl)-2-hydroxybenzohydrazide [Compound 5e] | 30 | 0.0 | 12 | 27 | 28 | 28 | 
N'-((E)-4-Bromobenzylidene)-4-(4-(2-((Z)-4-bromobenzylidene)hydrazine-1-carbonyl)-3-hydroxybenzyl)-2-hydroxybenzohydrazide [Compound 5d] | 31 | 0.0 | 10 | 28 | 26 | 30 | 
N'-((E)-3-Chlorobenzylidene)-4-(4-(2-((Z)-3-chlorobenzylidene)hydrazine-1-carbonyl)-3-hydroxybenzyl)-2-hydroxybenzohydrazide [Compound 5g] | 35 | 0.0 | 0.0 | 33 | 30 | 30 | activity compared to ciprofloxacin (Staph. aureus; S. aureus): 88%; activity of ciprofloxacin [5]: 75%
CC(CNC(=O)c1ccccc1O)/N=C/c1cc(Cl)cc(Cl)c1O (centres unmarked) [IV] |  |  |  |  |  |  | inhibitory activity against ecKAS III [6]: potent inhibitory activity
O=C(O)c1cn(C2CC2)c2cc(N3CCNCC3)c(F)cc2c1=O [Ciprofloxacin, reference compound] | 40 |  |  | 40 | 40 | 40 | MIC (Bacillus subtilis [7]): 0.01 µg/mL (≈ 0.0302 µM); MIC (Pseudomonas aeruginosa [8]): 0.06 µg/mL (≈ 0.181 µM); MIC (Staphylococcus aureus): 0.03 µg/mL (≈ 0.0905 µM); MIC (Escherichia Coli [9]): 0.06 µg/mL (≈ 0.181 µM)
O=C(O)c1cc(Cc2ccc(O)c(C(=O)O)c2)ccc1O [NSC 14778, disalicylic acid methylene] |  |  |  |  |  |  | inhibitory activity on DNMTs [10]: within the micromolar range
